In patent US10662203B2, “Pyrido[2,3-b]indole compounds for the treatment and prophylaxis of bacterial infection” (Hoffmann-La Roche Inc., priority 2017, dated 2020):
Converted amounts (≈) assume the structure as drawn. Where two headings read alike, the source gives them in different places.

Experiments:
A. baumannii (ATCC17978) = assay: 50% growth inhibitory concentration (IC50) determination assay; type: cell-based; conditions: Acinetobacter baumannii, ATCC17978, A. baumannii ATCC17978; Iso-Sensitest broth; 0.098 = detection limit
Outline: (§1)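 Read-out is optical density at λ=600 nm, taken every 20 minutes across a 16 h time course. Bacteria at ~5×10^5 CFU/mL in Iso-Sensitest broth are exposed to two-fold dilutions of compound (50 to 0.097 μM final) at 35±2° C.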

[1] = tested on: K. pneumoniae (ATCC10031); assay: as above; type: cell-based; conditions: Klebsiella pneumoniae, Iso-Sensitest broth, 0.098 = detection limit
Outline: as §1

S. aureus (ATCC29213) = assay: as above; type: cell-based; conditions: Staphylococcus aureus, Iso-Sensitest broth, 0.098 = detection limit
Outline: as §1

[2] = Cytotoxicity assay (HepG2, CellTiter-Blue cell viability); type: cell-based; conditions: human
Procedure: The cytotoxicity of compounds of present invention was assessed by HepG2 assay. HepG2 cells (ATCC HB-8065™) were seeded into 96-well plates (1.2×10^4 cells per well) and treated with compounds for 3 days, cell viability was measured at day 3 post compound treatment using the CellTiter-Blue® Cell Viability Assay (Promega, Cat. No. G8082). 20 μL of Cell titer blue buffer were added to each well of the cells, which were incubated for 3 hours at 37° C., and the fluorescence value was measured by a plate reader (Molecular Device SpectraMax M2). The CC50 value of each compound is plotted with GraphPad Prism using four parameter logistic equation.

[3] = Lyophilisation solubility assay (LYSA); type: physicochemical; conditions: phosphate buffer, pH 6.5, aqueous buffer, thermodynamic from solid, 0.05 M phosphate buffer, HPLC-UV
Procedure: Lyophilisation Solubility Assay (LYSA):
The solubility of compounds of present invention was assessed by LYSA assay. Samples were prepared in duplicate from 10 mM DMSO stock solutions (20 μL) diluted in 30 μL pure DMSO. After evaporation of DMSO with a centrifugal vacuum evaporator, the residue was dissolved in 0.05 M phosphate buffer (150 μL, pH 6.5), which was stirred for one hour and shook for two hours. After one night, the solution was filtered using a microtiter filter plate. Then the filtrate and its 1/10 dilution were analyzed by HPLC-UV.

[4] = HepG2 cells, 3 days treatment, "*": the detection limit, read-out: CC50

Row | SMILES | IC50 (A. baumannii (ATCC17978)) [µM] | IC50 [1] [µM] | IC50 (S. aureus (ATCC29213)) [µM] | solubility thermodynamic [3] [µg/mL] | CC50 at 3 days [2, 4] [nM] | CC50 at 3 days [2] [nM]
1 | CNc1cc(F)c(F)c2c1[nH]c1ncc(-c3cnc4c(c3)c(=O)c(C(=O)O)cn4CC3COCCN3)c(N(C)C)c12 (stereo not drawn) [Example 1.03] | 0.437 | < 0.098 | < 0.098 | – | 38100 | –
2 | CNc1cc(F)c(F)c2c1[nH]c1ncc(-c3cnc4c(c3)c(=O)c(C(=O)O)cn4CC3CCCN3)c(N3CCOCC3)c12 (stereo not drawn) [Example 1.11] | 0.847 | – | – | – | > 100000 | –
3 | CNc1cc(F)cc2c1[nH]c1ncc(-c3cnc4c(c3)c(=O)c(C(=O)O)cn4C)c(N3CCC(O)(C(F)(F)F)C3)c12 (stereo not drawn) [Example 1.25] | – | – | – | – | 62600 | –
4 | CNc1cc(F)c(F)c2c1[nH]c1ncc(-c3cnc4c(c3)c(=O)c(C(=O)O)cn4C)c(N3CCC(N)(C(F)(F)F)C3)c12 (stereo not drawn) [Example 1.27] | 0.602 | – | < 0.098 | – | 28200 | –
5 | CNc1cc(F)c(F)c2c1[nH]c1ncc(-c3cnc4c(c3)c(=O)c(C(=O)O)cn4CC3COCCN3)c(N3CCOCC3)c12 (stereo not drawn) [Example 1.31] | – | – | – | – | 49000 | –
6 | CCNc1cc(F)cc2c1[nH]c1ncc(-c3cnc4c(c3)c(=O)c(C(=O)O)cn4C3CCNC3)c(N3CCOCC3)c12 (stereo not drawn) [Example 1.34] | – | – | – | – | > 100000 | –
7 | CNc1cc(F)cc2c1[nH]c1ncc(-c3cnc4c(c3)c(=O)c(C(=O)O)cn4CC3COCCN3)c(NC)c12 (stereo not drawn) [Example 1.37] | – | – | – | – | 55500 | –
8 | CNc1cc(F)c(F)c2c1[nH]c1ncc(-c3cnc4c(c3)c(=O)c(C(=O)O)cn4CC3COCCN3)c(N(C)CCOC)c12 (stereo not drawn) [Example 1.41] | – | – | – | – | 90200 | –
9 | CNc1cc(F)c(F)c2c1[nH]c1ncc(-c3cnc4c(c3)c(=O)c(C(=O)O)cn4CC3CNCCO3)c(N3CCOCC3)c12 (stereo not drawn) [Example 1.42] | – | – | – | – | > 100000 | –
10 | CNc1cc(F)cc2c1[nH]c1ncc(-c3cnc4c(c3)c(=O)c(C(=O)O)cn4C(C)(CO)CO)c(N3CCOCC3)c12 [Example 1.44] | – | – | – | – | > 100000 | –
11 | CNc1cc(F)cc2c1[nH]c1ncc(-c3cnc4c(c3)c(=O)c(C(=O)O)cn4C)c(N3CCC(O)C3)c12 (stereo not drawn) [Example 1.47] | – | – | – | – | > 100000 | –
12 | CNc1c(Cl)c(F)cc2c1[nH]c1ncc(-c3cnc4c(c3)c(=O)c(C(=O)O)cn4C3CCNC3)c(N(C)C)c12 (stereo not drawn) [Example 1.68] | – | – | – | – | 26500 | –
13 | CCn1cc(C(=O)O)c(=O)c2cc(-c3cnc4[nH]c5c(NC)cc(F)c(F)c5c4c3N3CC4CC(C3)O4)cnc21 [Example 1.128] | – | – | – | – | – | 27100
14 | CNc1cc(F)c(F)c2c1[nH]c1ncc(-c3cnc4c(c3)c(=O)c(C(=O)O)cn4C)c(N3CCC4(CN(C)C4)C3)c12 [Example 1.228] | – | – | – | – | > 100000 | –
15 | CNc1cc(F)c(F)c2c1[nH]c1ncc(-c3cnc4c(c3)c(=O)c(C(=O)O)cn4C3CCNC3)c(N3CCO[C@@H](C)C3)c12 (stereo partly drawn) [Example 1.251] | – | – | – | – | > 100000 | –
16 | CCNn1cc(C(=O)O)c(=O)c2cc(-c3cnc4[nH]c5c(NC)cc(F)c(F)c5c4c3N3CC[C@@H](N(C)C)C3)cnc21 [Example 1.258] | < 0.098 | < 0.098 | < 0.098 | 17 (≈ 29.5 µM) | – | –

The next lines start with results.

Row | IC50 (A. baumannii (ATCC17978)) [µM] | IC50 [1] [µM] | IC50 (S. aureus (ATCC29213)) [µM] | solubility thermodynamic [3] [µg/mL] | SMILES | CC50 at 3 days [2, 4] [nM] | CC50 at 3 days [2] [nM]
17 | 0.403 | < 0.098 | < 0.098 | – | CCNc1cc(F)cc2c1[nH]c1ncc(-c3cnc4c(c3)c(=O)c(C(=O)O)cn4CC)c(-n3cc(CN)c(C(F)(F)F)n3)c12 [Example 1.15] | > 100000 | –
18 | 0.643 | – | < 0.098 | – | CNc1cc(F)cc2c1[nH]c1ncc(-c3cnc4c(c3)c(=O)c(C(=O)O)cn4Cc3cnccn3)c(N3CCOCC3)c12 [Example 1.58] | > 100000 | –
19 | 0.533 | < 0.098 | < 0.098 | 17 (≈ 31.4 µM) | CNc1cc(F)cc2c1[nH]c1ncc(-c3cnc4c(c3)c(=O)c(C(=O)O)cn4C3CCNC3)c(N3CCCC3)c12 (stereo not drawn) [Example 1.259] | – | –
20 | 0.558 | < 0.098 | < 0.098 | 277 (≈ 459 µM) | CNc1cc(F)c(F)c2c1[nH]c1ncc(-c3cnc4c(c3)c(=O)c(C(=O)O)cn4C)c(N3CC4[C@H](CCN4CCCO)C3)c12 (stereo partly drawn) [Example 1.260] | – | –
21 | 0.267 | < 0.098 | < 0.098 | 159 (≈ 277 µM) | CNc1cc(Cl)cc2c1[nH]c1ncc(-c3cnc4c(c3)c(=O)c(C(=O)O)cn4NC)c(N3CC[C@H]4CN(C)CC43)c12 (stereo partly drawn) [Example 1.264] | – | –
22 | 0.066 | < 0.098 | < 0.098 | 241 (≈ 408 µM) | CNc1cc(Cl)c(F)c2c1[nH]c1ncc(-c3cnc4c(c3)c(=O)c(C(=O)O)cn4NC)c(N3CC[C@H]4CN(C)CC43)c12 (stereo partly drawn) [Example 1.266] | – | –
23 | 0.072 | < 0.098 | < 0.098 | 104 (≈ 181 µM) | CNc1cc(Cl)c(F)c2c1[nH]c1ncc(-c3cnc4c(c3)c(=O)c(C(=O)O)cn4C)c(N3CC[C@H]4CN(C)CC43)c12 (stereo partly drawn) [Example 1.267] | – | –
24 | 0.112 | < 0.098 | < 0.098 | > 632 | CNc1cc(F)cc2c1[nH]c1ncc(-c3cnc4c(c3)c(=O)c(C(=O)O)cn4C)c(N3CCC4(C)CN(C)CC34)c12 (stereo not drawn) [Example 1.272] | – | –
25 | 0.254 | < 0.098 | < 0.098 | 468 (≈ 820 µM) | CNc1cc(F)cc2c1[nH]c1ncc(-c3cnc4c(c3)c(=O)c(C(=O)O)cn4NC)c(N3CCC4(C)CN(C)CC34)c12 (stereo not drawn) [Example 1.273] | – | –
26 | 0.215 | < 0.098 | < 0.098 | 151 (≈ 263 µM) | CCN1CC2[C@@H](CCN2c2c(-c3cnc4c(c3)c(=O)c(C(=O)O)cn4C)cnc3[nH]c4c(NC)cc(F)c(F)c4c23)C1 (stereo partly drawn) [Example 1.279] | – | –
27 | 0.21 | < 0.098 | < 0.098 | 113 (≈ 203 µM) | CCn1cc(C(=O)O)c(=O)c2cc(-c3cnc4[nH]c5c(NC)cc(F)cc5c4c3N3CC[C@H]4CN(C)CC43)cnc21 (stereo partly drawn) [Example 1.289] | – | –
28 | 0.148 | < 0.098 | < 0.098 | 247 (≈ 433 µM) | CCNn1cc(C(=O)O)c(=O)c2cc(-c3cnc4[nH]c5c(NC)cc(F)cc5c4c3N3CC[C@H]4CN(C)CC43)cnc21 (stereo partly drawn) [Example 1.290] | – | –
29 | 0.157 | < 0.098 | < 0.098 | 138 (≈ 234 µM) | CCNn1cc(C(=O)O)c(=O)c2cc(-c3cnc4[nH]c5c(NC)cc(F)c(F)c5c4c3N3CC[C@H]4CN(C)CC43)cnc21 (stereo partly drawn) [Example 1.291] | – | –
30 | 0.155 | < 0.098 | 0.122 | 33 (≈ 57.4 µM) | CNc1cc(F)c(F)c2c1[nH]c1ncc(-c3cnc4c(c3)c(=O)c(C(=O)O)cn4NC)c(N3C[C@@H]4CCN(C)[C@@H]4C3)c12 [Example 3.07B] | – | –
31 | 0.087 | < 0.098 | < 0.098 | 118 (≈ 212 µM) | CNc1cc(F)cc2c1[nH]c1ncc(-c3cnc4c(c3)c(=O)c(C(=O)O)cn4NC)c(N3C[C@H]4CCN(C)[C@H]4C3)c12 [Example 3.17A] | – | –
32 | 0.075 | < 0.098 | < 0.098 | 125 (≈ 225 µM) | CNc1cc(F)cc2c1[nH]c1ncc(-c3cnc4c(c3)c(=O)c(C(=O)O)cn4NC)c(N3C[C@@H]4CCN(C)[C@@H]4C3)c12 [Example 3.17B] | – | –
33 | 0.081 | < 0.098 | < 0.098 | 172 (≈ 310 µM) | CNc1cc(F)cc2c1[nH]c1ncc(-c3cnc4c(c3)c(=O)c(C(=O)O)cn4C)c(N3CC[C@H]4CCN(C)[C@H]4C3)c12 [Example 3.18A] | – | –
34 | 0.275 | < 0.098 | 0.133 | 338 (≈ 608 µM) | CNc1cc(F)cc2c1[nH]c1ncc(-c3cnc4c(c3)c(=O)c(C(=O)O)cn4C)c(N3CC[C@@H]4CCN(C)[C@@H]4C3)c12 [Example 3.18B] | – | –
35 | 0.865 | < 0.098 | < 0.098 | 49 (≈ 85.6 µM) | CNc1cc(F)cc2c1[nH]c1ncc(-c3cnc4c(c3)c(=O)c(C(=O)O)cn4NC)c(N3C[C@H]4OCCN(C)[C@H]4C3)c12 [Example 3.23A] | – | –
36 | 0.789 | < 0.098 | < 0.098 | 58 (≈ 101 µM) | CNc1cc(F)cc2c1[nH]c1ncc(-c3cnc4c(c3)c(=O)c(C(=O)O)cn4NC)c(N3C[C@@H]4OCCN(C)[C@@H]4C3)c12 [Example 3.23B] | – | –
37 | 0.28 | < 0.098 | < 0.098 | 330 (≈ 569 µM) | CNc1cc(F)c(F)c2c1[nH]c1ncc(-c3cnc4c(c3)c(=O)c(C(=O)O)cn4C)c(N3C[C@@H](F)C[C@H]3CN(C)C)c12 [Example 7.01, 6-(4-((2S,4S)-2-((Dimethylamino)methyl)-4-fluoropyrrolidin-1-yl)-5,6-difluoro-8-(methylamino)-9H-pyrido[2,3-b]indol-3-yl)-1-methyl-4-oxo-1,4-dihydro-1,8-naphthyridine-3-carboxylic acid] | – | –
